According to the supplement of paper PMC13380429:

Columns and labels:
[1] = test system: A549-ACE2 infected with SARS-CoV-2; assay: cell count relative to DMSO; higher = less toxic; settings: 24 h
Caco-2 [2] = assay: cell viability relative to DMSO; higher = less toxic; settings: 72 h
Calu-3 [3] = assay: as above; settings: 72 h
HepG2 [4] = assay: as above; settings: 72 h
U2OS [5] = assay: as above; settings: 72 h
Vero E6 [6] = assay: as above; settings: 72 h
[7] = test system: A549-ACE2 infected with SARS-CoV-2; assay: SARS-CoV-2 infection rate relative to DMSO; higher = more infection; settings: 24 h
A549-ACE2 [8] = assay: phospholipidosis EC50; higher = less potent phospholipidosis inducer
A549-ACE2 [9] = assay: drug-induced phospholipidosis relative to tamoxifen; higher = more phospholipidosis
[10] = test system: A549-ACE2 infected with SARS-CoV-2; assay: morphology score (similarity to uninfected cells); higher = more like uninfected cells; settings: 24 h
Calu-3 [11] = assay: relative viability EC50 (midpoint between 100% and the lowest measured viability); higher = less toxic; settings: 72 h
HepG2 [12] = assay: as above; settings: 72 h
Caco-2 [13] = assay: drug sensitivity score (DSS) for viability; higher = more toxic; extreme values may be limits of the assay; settings: 72 h
Calu-3 [14] = assay: as above; settings: 72 h
HepG2 [15] = assay: as above; settings: 72 h
U2OS [16] = assay: as above; settings: 72 h
Vero E6 [17] = assay: as above; settings: 72 h
Caco-2 [18] = assay: relative viability EC50 (midpoint between 100% and the lowest measured viability); higher = less toxic; settings: 72 h
U2OS [19] = assay: as above; settings: 72 h
Vero E6 [20] = assay: as above; settings: 72 h

CCCCN1[C@@H]2CC[C@H]1C[C@@H](OC(c1ccc(F)cc1)c1ccc(F)cc1)C2 [JHW-007]
Settings | SARS-CoV-2 infection rate [%] | cell count [%] | cell viability [%] | morphology score | phospholipidosis EC50 [µM]
A549-ACE2 [8], 24 h | – | – | – | – | 1.59
A549-ACE2 [8], 48 h | – | – | – | – | 3.06
A549-ACE2 [8], 72 h | – | – | – | – | 3.56
Caco-2 [2], 1 nM | – | – | 98.9 | – | –
Caco-2 [2], 10 nM | – | – | 98.3 | – | –
Caco-2 [2], 100 nM | – | – | 102 | – | –
Caco-2 [2], 1000 nM | – | – | 76 | – | –
Caco-2 [2], 10000 nM | – | – | 61.2 | – | –
Calu-3 [3], 1 nM | – | – | 96.8 | – | –
Calu-3 [3], 10 nM | – | – | 96.8 | – | –
Calu-3 [3], 100 nM | – | – | 98.4 | – | –
Calu-3 [3], 1000 nM | – | – | 96.6 | – | –
Calu-3 [3], 10000 nM | – | – | 28 | – | –
HepG2 [4], 1 nM | – | – | 96.6 | – | –
HepG2 [4], 10 nM | – | – | 95.1 | – | –
HepG2 [4], 100 nM | – | – | 96 | – | –
HepG2 [4], 1000 nM | – | – | 103 | – | –
HepG2 [4], 10000 nM | – | – | 36.1 | – | –
U2OS [5], 1 nM | – | – | 102 | – | –
U2OS [5], 10 nM | – | – | 97.9 | – | –
U2OS [5], 100 nM | – | – | 99.9 | – | –
U2OS [5], 1000 nM | – | – | 91.9 | – | –
U2OS [5], 10000 nM | – | – | 70.6 | – | –
Vero E6 [6], 1 nM | – | – | 102 | – | –
Vero E6 [6], 10 nM | – | – | 104 | – | –
Vero E6 [6], 100 nM | – | – | 100 | – | –
Vero E6 [6], 1000 nM | – | – | 99.3 | – | –
Vero E6 [6], 10000 nM | – | – | 61.8 | – | –
[1], 0.1 µM | – | 102 | – | – | –
[1], 0.3 µM | – | 106 | – | – | –
[1], 1 µM | – | 114 | – | – | –
[1], 3 µM | – | 116 | – | – | –
[7], 0.1 µM | 103 | – | – | – | –
[7], 0.3 µM | 85 | – | – | – | –
[7], 1 µM | 58 | – | – | – | –
[7], 3 µM | 20 | – | – | – | –
[10], 0.1 µM | – | – | – | 0.03 | –
[10], 0.3 µM | – | – | – | 0.4 | –
[10], 1 µM | – | – | – | 0.72 | –
[10], 3 µM | – | – | – | 0.93 | –

drug-induced phospholipidosis [%], A549-ACE2 [9]
Settings | 0.3 µM | 0.833333 µM | 3.33333 µM | 6.66667 µM | 10 µM
24 h | 6 | 18.5 | 80.2 | 92.2 | 90
48 h | 6.06 | 12.4 | 63.9 | 99 | 103
72 h | 9.39 | 14.6 | 61.5 | 99.8 | 110

Settings | drug sensitivity score | relative viability EC50 [µM]
Caco-2 [13] | 4.8 | –
Calu-3 [11] | – | 2.8
Calu-3 [14] | 4.5 | –
HepG2 [12] | – | 3.44
HepG2 [15] | 3.2 | –
U2OS [16] | 2.4 | –
Vero E6 [17] | 1.9 | –

COC(=O)C[C@](O)(CCCC(C)(C)O)C(=O)O[C@@H]1C(OC)=C[C@]23CCCN2CCc2cc4c(cc2[C@H]13)OCO4 [homoharringtonine]
Settings | SARS-CoV-2 infection rate, [7] [%] | cell count, [1] [%] | cell viability, Caco-2 [2] [%] | cell viability, Calu-3 [3] [%] | cell viability, HepG2 [4] [%] | cell viability, U2OS [5] [%] | cell viability, Vero E6 [6] [%] | morphology score, [10]
1 nM | – | – | 99.3 | 93.4 | 98.4 | 104 | 92.4 | –
10 nM | – | – | 102 | 91.1 | 89.1 | 101 | 103 | –
100 nM | – | – | 61.8 | 60.1 | 29.4 | 23 | 82.1 | –
0.3 µM | 12 | 68 | – | – | – | – | – | 0.32
1000 nM | – | – | 24.7 | 27.3 | 6 | 6.6 | 12.8 | –
3 µM | 16 | 49 | – | – | – | – | – | 0.26
10 µM | 19 | 42 | – | – | – | – | – | 0.3
10000 nM | – | – | 27.9 | 22 | 1 | 0.3 | 0.5 | –
30 µM | 15 | 30 | – | – | – | – | – | 0.33

Settings | drug-induced phospholipidosis [%]
A549-ACE2 [9], 0.3 µM, 24 h | -2.95

Settings | drug sensitivity score | relative viability EC50 [µM]
Caco-2 [13] | 18.6 | –
Caco-2 [18] | – | 0.099
Calu-3 [11] | – | 0.0897
Calu-3 [14] | 18.5 | –
HepG2 [12] | – | 0.0497
HepG2 [15] | 27 | –
U2OS [16] | 26.8 | –
U2OS [19] | – | 0.0616
Vero E6 [17] | 18.2 | –
Vero E6 [20] | – | 0.273

Nc1nccc(Oc2ccc(NC(=O)c3c[nH]cc(-c4ccc(F)cc4)c3=O)cc2F)c1Cl [metatinib]
Settings | SARS-CoV-2 infection rate, [7] [%] | cell count, [1] [%] | cell viability, Caco-2 [2] [%] | cell viability, Calu-3 [3] [%] | cell viability, HepG2 [4] [%] | cell viability, U2OS [5] [%] | morphology score, [10]
1 nM | – | – | 100 | 91.4 | 104 | 96.2 | –
10 nM | – | – | 104 | 96.5 | 106 | 102 | –
100 nM | – | – | 92.6 | 95.5 | 101 | 100 | –
0.3 µM | 101 | 95 | – | – | – | – | -0.24
1000 nM | – | – | 104 | 95.3 | 85.6 | 99.2 | –
3 µM | 91 | 102 | – | – | – | – | -0.08
10 µM | 97 | 106 | – | – | – | – | 0.16
10000 nM | – | – | 80 | 96.3 | 37.7 | 94.9 | –
30 µM | 60 | 60 | – | – | – | – | 0.34

drug-induced phospholipidosis [%], A549-ACE2 [9]
Settings | 0.3 µM | 0.833333 µM | 3.33333 µM | 6.66667 µM | 10 µM | 30 µM
24 h | 2.65 | 1.25 | 4.8 | 18.8 | 23.4 | 32.3
48 h | 4.96 | -2.22 | -0.29 | 7.93 | 12.6 | 20.2
72 h | 2.59 | -0.924 | 2.59 | 8.07 | 10.8 | 22.5

Settings | drug sensitivity score | relative viability EC50 [µM]
Caco-2 [13] | 0.4 | –
Caco-2 [18] | – | > 10
Calu-3 [11] | – | > 10
Calu-3 [14] | 0 | –
HepG2 [12] | – | 1.61
HepG2 [15] | 5.7 | –
U2OS [16] | 0 | –
U2OS [19] | – | > 10

CN(Cc1ccc(C(C)(C)C)cc1)Cc1cccc2ccccc12 [butenafine]
Settings | SARS-CoV-2 infection rate, [7] [%] | cell count, [1] [%] | cell viability, Caco-2 [2] [%] | cell viability, Calu-3 [3] [%] | cell viability, HepG2 [4] [%] | cell viability, U2OS [5] [%] | cell viability, Vero E6 [6] [%] | morphology score, [10]
1 nM | – | – | 95.3 | 100 | 106 | 94.6 | 92.8 | –
10 nM | – | – | 101 | 102 | 94.2 | 98 | 102 | –
100 nM | – | – | 92.8 | 98 | 103 | 96.9 | 95.5 | –
0.3 µM | 100 | 101 | – | – | – | – | – | 0.14
1000 nM | – | – | 92.5 | 94.5 | 102 | 96.3 | 102 | –
3 µM | 105 | 83 | – | – | – | – | – | -0.05
10 µM | 77 | 107 | – | – | – | – | – | 0.58
10000 nM | – | – | 93.6 | 98 | 105 | 96.1 | 97.4 | –
30 µM | 39 | 110 | – | – | – | – | – | 0.79

drug-induced phospholipidosis [%], A549-ACE2 [9]
Settings | 0.3 µM | 0.833333 µM | 3.33333 µM | 6.66667 µM | 10 µM | 30 µM
24 h | 1.71 | -2.5 | 2.21 | -2.25 | 2.84 | 7.06
48 h | 1.14 | -3.77 | -1.99 | -1.09 | 3.04 | 15.1
72 h | 2.18 | -4.26 | -1.97 | -2.04 | 0.626 | 14.1

Settings | drug sensitivity score | relative viability EC50 [µM]
Caco-2 [13] | 0 | –
Caco-2 [18] | – | > 10
Calu-3 [11] | – | > 10
Calu-3 [14] | 0 | –
HepG2 [12] | – | > 10
HepG2 [15] | 0 | –
U2OS [16] | 0 | –
U2OS [19] | – | > 10
Vero E6 [17] | 0 | –
Vero E6 [20] | – | > 10

O=C(O)C[C@H]1CC[C@H](c2ccc(-c3ccc(Nc4ccc(C(F)(F)F)nc4)cn3)cc2)CC1 [LCQ908]
cell viability [%]
Settings | Caco-2 [2] | Calu-3 [3] | HepG2 [4] | U2OS [5] | Vero E6 [6]
1 nM | 104 | 92.1 | 99.4 | 95.7 | 105
10 nM | 102 | 103 | 102 | 102 | 104
100 nM | 98.3 | 95 | 108 | 97 | 103
1000 nM | 100 | 95.7 | 93.5 | 102 | 100
10000 nM | 92.4 | 95.5 | 99.8 | 90.5 | 104

Settings | drug sensitivity score | relative viability EC50 [µM]
Caco-2 [13] | 0 | –
Caco-2 [18] | – | > 10
Calu-3 [11] | – | > 10
Calu-3 [14] | 0 | –
HepG2 [12] | – | > 10
HepG2 [15] | 0 | –
U2OS [16] | 0 | –
U2OS [19] | – | > 10
Vero E6 [17] | 0 | –
Vero E6 [20] | – | > 10
